Experimental data: patent US10124004B2, “Pyrido[3,4-d]pyrimidine derivative and pharmaceutically acceptable salt thereof” (Teijin Pharma Limited, priority 2015, dated 2018)
Like-named read-outs stand apart in the source and are kept apart here.

Target: T1, CDK4/cyclin D3 (Homo sapiens, UniProt P11802)
T1 construct: purchased Carna Biosciences, Inc. QS S Assist CDK4/Cyclin D3_FP Kit
Assay: Human CDK4/cyclin D3 inhibitory activity (QS S Assist CDK4/Cyclin D3_FP Kit, IMAP fluorescence polarization)
Type: biochemical
Description: Human CDK4/Cyclin D3 Inhibitory Activity
Each compound was analyzed for CDK4/cyclin D3 inhibitory activity with an assay kit (QS S Assist CDK4/Cyclin D3_FP Kit, available from Carna Biosciences, Inc.). This assay kit determines kinase activity on the basis of the IMAP technology by Molecular Devices. Specifically, the kinase activity is determined through quantification of a variation in fluorescent polarization caused by binding of a kinase-phosphorylated fluorescent substance to an IMAP-binding reagent.
Each solution was prepared with the 10× assay buffer attached to the kit or a separately prepared assay buffer having the same composition as the assay buffer attached to the kit. An assay buffer was prepared by 10-fold dilution of the 10× assay buffer with distilled water. The assay buffer contains 20 mM HEPES (pH 7.4), 0.01% Tween20, and 2 mM dithiothreitol. A test compound solution was prepared by dilution of the test compound with dimethyl sulfoxide (DMSO) to a concentration 100 times higher than the final concentration and then 25-fold dilution with the assay buffer to a concentration four times higher than the final concentration. An ATP/substrate/Metal solution was prepared by five-fold dilution of the 5×ATP/substrate/Metal solution attached to the kit with the assay buffer. An enzyme solution was prepared by dilution of the CDK4/cyclin D3 attached to the kit with the assay buffer to a concentration twice higher than the final concentration (final concentration of CDK4/cyclin D3:12.5 to 25 ng/well). A detection reagent was prepared by five-fold dilution of each of 5× IMAP-binding buffer A and 5×IMAP-binding buffer B with distilled water, mixing of IMAP-binding buffer A with IMAP-binding buffer B at a ratio of 85:15, and 400-fold dilution of the IMAP-binding reagent with the mixed buffer.
The test compound solution (5 μL/well) and the ATP/substrate/Metal solution (5 μL/well) were added to a 384-well plate, and the enzyme solution or the assay buffer (10 μL/well) was added to the plate (total amount of the reaction mixture: 20 μL/well) for initiation of enzymatic reaction. […] The reaction was performed at room temperature for 45 minutes, and the detection reagent (60 μL/well) was then added to the plate, followed by further reaction for 30 minutes at room temperature under light shielding conditions. Subsequently, fluorescent polarization was determined with a microplate reader at an excitation wavelength of 485 nm and an emission wavelength of 535 nm.
The percent inhibition of enzyme activity was calculated for each test compound (note: enzyme activity=100% in the case of addition of the enzyme solution and addition of DMSO instead of the test compound solution, whereas enzyme activity=0% in the case of addition of the assay buffer instead of the enzyme solution, and addition of DMSO instead of the test compound solution). The percent inhibition of enzyme activity was fitted to a dose-response curve, to determine a 50% inhibitory concentration against CDK4/cyclin D3.
In each table, “+++” corresponds to IC50<10 nM, “++” 10 nM≤IC50<100 nM, and “+” 100 nM≤IC50.

[1] = Human CDK4/cyclin D3 inhibitory activity, read-out: CDK4 Activity symbol
[2] = 50% inhibitory concentration against CDK4/cyclin D3, given as class symbol

T1 sequence (P11802 whole entry): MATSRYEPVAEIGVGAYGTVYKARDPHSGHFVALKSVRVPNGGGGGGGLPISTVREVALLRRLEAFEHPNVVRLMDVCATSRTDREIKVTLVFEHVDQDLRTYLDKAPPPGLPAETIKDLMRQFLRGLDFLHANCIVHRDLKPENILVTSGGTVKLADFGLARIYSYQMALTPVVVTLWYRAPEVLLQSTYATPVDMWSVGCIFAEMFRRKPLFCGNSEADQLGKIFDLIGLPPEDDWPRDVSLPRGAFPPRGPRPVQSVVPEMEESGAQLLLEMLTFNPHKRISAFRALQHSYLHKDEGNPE
T1 sequence (P30281 whole entry partner): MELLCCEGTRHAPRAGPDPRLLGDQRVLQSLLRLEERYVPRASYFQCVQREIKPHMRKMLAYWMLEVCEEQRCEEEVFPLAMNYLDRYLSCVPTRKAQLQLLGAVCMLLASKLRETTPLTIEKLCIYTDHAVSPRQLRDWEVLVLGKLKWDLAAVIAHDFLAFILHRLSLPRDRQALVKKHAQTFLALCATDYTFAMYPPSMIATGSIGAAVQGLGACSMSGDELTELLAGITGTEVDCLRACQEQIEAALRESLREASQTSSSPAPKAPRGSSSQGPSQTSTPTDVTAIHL

SMILES | IC50 [1] [nM] | IC50 [2] [nM]
CC(O)c1cc2cnc(Nc3ccc(OCCN(C)C)cn3)nc2c(NC2CCC(C)(C)OC2)n1 (single isomer, unassigned) [Compound 689] |  | < 10
CC(O)c1cc2cnc(Nc3ccc(OCCN(C)C)cn3)nc2c(NC2CCC(C)(C)OC2)n1 (single isomer, unassigned) [Compound 690] |  | < 10
CC(C)Nc1nc(C(C)O)cc2cnc(Nc3ccc(N4CCC(O)C(C)C4)nn3)nc12 (single isomer, unassigned) [Compound 704] |  | < 10
CC(C)Nc1nc(C(C)O)cc2cnc(Nc3ccc(N4CCC(O)C(C)C4)nn3)nc12 (single isomer, unassigned) [Compound 705] |  | < 10
CO[C@H](C)c1cc2cnc(Nc3ccc(N4CCNCC4=O)nn3)nc2c(NC(C)C)n1 [Compound 356] | 10 to 100 | 
CO[C@H](C)c1cc2cnc(Nc3ccc(N4CCNCC4)nn3)nc2c(NC2CCS(=O)(=O)CC2)n1 [Compound 359] | 10 to 100 | 
CO[C@H](C)c1cc2cnc(Nc3ccc(N4CCNC(=O)C4)nn3)nc2c(NC(C)C)n1 [Compound 362] | 10 to 100 | 
CO[C@H](C)c1cc2cnc(Nc3ncc(N4CCNCC4)cn3)nc2c(NC(C)C)n1 [Compound 374] | 10 to 100 | 
COCC(C)(C)Nc1nc([C@@H](C)O)cc2cnc(Nc3ncc(N4CCNCC4)cn3)nc12 [Compound 375] | ≥ 100 | 
CO[C@H](C)c1cc2cnc(Nc3ccc(N(C)C(=O)C4CCNCC4)cn3)nc2c(NC(C)C)n1 [Compound 377] | 10 to 100 | 
COC(C)c1cc2cnc(Nc3ccc(CN4CCNCC4)cn3)nc2c(N(C)C(C)C)n1 (centres unmarked) [Compound 391] | 10 to 100 | 
COC(C)c1cc2cnc(Nc3ccc(CN4CCNCC4)cn3)nc2c(NCCN2CCNC2=O)n1 (centres unmarked) [Compound 393] | 10 to 100 | 
COC(C)c1cc2cnc(Nc3ccc(CN4CCNCC4)cn3)nc2c(NCC(C)(C)OC)n1 (centres unmarked) [Compound 394] | 10 to 100 | 
COC(C)c1cc2cnc(Nc3ccc(CN4CCNCC4)cn3)nc2c(NCC2COC2)n1 (centres unmarked) [Compound 396] | ≥ 100 | 
COC(C)c1cc2cnc(Nc3ccc(CN4CCNCC4)cn3)nc2c(NC2CCNCC2)n1 (centres unmarked) [Compound 399] | 10 to 100 | 
COC(C)c1cc2cnc(Nc3ccc(CN4CCNCC4)cn3)nc2c(Nc2ccc(C#N)cc2)n1 (centres unmarked) [Compound 401] | 10 to 100 | 
COC(C)c1cc2cnc(Nc3ccc(CN4CCNCC4)cn3)nc2c(NCC2CCC(=O)N2)n1 (centres unmarked) [Compound 403] | 10 to 100 | 

SMILES | IC50 [1] [nM] | IC50 [2] [nM]
COC(C)c1cc2cnc(Nc3ccc(CN4CCNCC4)cn3)nc2c(NC2CCCN(C(C)=O)C2)n1 (centres unmarked) [Compound 405] | 10 to 100 | 
COC(C)c1cc2cnc(Nc3ccc(CN4CCNCC4)cn3)nc2c(NCC2CNC(=O)C2)n1 (centres unmarked) [Compound 406] | 10 to 100 | 
COC(C)c1cc2cnc(Nc3ccc(CN4CCNCC4)cn3)nc2c(NC2CCCN(C)C2)n1 (centres unmarked) [Compound 407] | 10 to 100 | 
COC(C)c1cc2cnc(Nc3ccc(CN4CCNCC4)cn3)nc2c(NC[C@@H]2CCCO2)n1 (some centres unmarked) [Compound 408] | 10 to 100 | 
COC(C)c1cc2cnc(Nc3ccc(CN4CCNCC4)cn3)nc2c(NCCN2CCCC2=O)n1 (centres unmarked) [Compound 414] | 10 to 100 | 
COC(C)c1cc2cnc(Nc3ccc(CN4CCNCC4)cn3)nc2c(NCc2ccc(=O)[nH]c2)n1 (centres unmarked) [Compound 416] | 10 to 100 | 
COC(C)c1cc2cnc(Nc3ccc(CN4CCNCC4)cn3)nc2c(NC2CNC(=O)C2)n1 (centres unmarked) [Compound 419] | 10 to 100 | 
COC(C)c1cc2cnc(Nc3ccc(CN4CCNCC4)cn3)nc2c(NC2CCC(=O)NC2)n1 (centres unmarked) [Compound 421] | 10 to 100 | 
COC(C)c1cc2cnc(Nc3ccc(CN4CCNCC4)cn3)nc2c(NC2CCNC(=O)C2)n1 (centres unmarked) [Compound 422] | 10 to 100 | 
COC(C)c1cc2cnc(Nc3ccc(CN4CCNCC4)cn3)nc2c(NC2CCC(O)C2)n1 (centres unmarked) [Compound 427] | < 10 | 
COC(C)c1cc2cnc(Nc3ccc(CN4CCNCC4)cn3)nc2c(NCCC2CCOCC2)n1 (centres unmarked) [Compound 428] | < 10 | 
COC(C)c1cc2cnc(Nc3ccc(CN4CCNCC4)cn3)nc2c(NCCC2CCCO2)n1 (centres unmarked) [Compound 429] | < 10 | 
COC(C)c1cc2cnc(Nc3ccc(CN4CCNCC4)cn3)nc2c(NCCC2CCCCO2)n1 (centres unmarked) [Compound 430] | < 10 | 
COC(C)c1cc2cnc(Nc3ccc(CN4CCNCC4)cn3)nc2c(NCCC2CCCOC2)n1 (centres unmarked) [Compound 431] | < 10 | 
COC(C)c1cc2cnc(Nc3ccc(CN4CCNCC4)cn3)nc2c(NC2(CO)CCOCC2)n1 (centres unmarked) [Compound 433] | 10 to 100 | 
COC(C)c1cc2cnc(Nc3ccc(CN4CCNCC4)cn3)nc2c(NC2(CO)CCCCC2)n1 (centres unmarked) [Compound 434] | < 10 | 
COC(C)c1cc2cnc(Nc3ccc(CN4CCNCC4)cn3)nc2c(NC[C@H]2CC[C@H](C(=O)O)CC2)n1 (some centres unmarked) [Compound 435] | 10 to 100 | 

Second part, the compound after the results:

IC50 [1] [nM] | IC50 [2] [nM] | SMILES
< 10 |  | COC(C)c1cc2cnc(Nc3ccc(O[C@@H]4CCNC[C@H]4F)cn3)nc2c(NC(C)C)n1 (relative stereo) [Compound 459]
< 10 |  | COC(C)c1cc2cnc(Nc3ccc(O[C@H]4CCNC[C@H]4F)cn3)nc2c(NC(C)C)n1 (relative stereo) [Compound 460]
< 10 |  | CC(C)Nc1nc(C(C)O)cc2cnc(Nc3ccc(N4CCCC(O)C4)nn3)nc12 (single isomer, unassigned) [Compound 582]
< 10 |  | CC(C)Nc1nc(C(F)F)cc2cnc(Nc3ccc(C4CCOCC4)cn3)nc12 [Compound 160]
< 10 |  | CO[C@H](C)c1cc2cnc(Nc3ccc(NC4CCNC4)nn3)nc2c(NC(C)C)n1 (some centres unmarked) [Compound 357]
< 10 |  | CO[C@H](C)c1cc2cnc(Nc3ccc(CN4CCNCC4)cn3)nc2c(NC2CCS(=O)(=O)CC2)n1 [Compound 361]
< 10 |  | COC(=O)[C@H]1CC[C@H](CNc2nc(C(C)OC)cc3cnc(Nc4ccc(CN5CCNCC5)cn4)nc23)CC1 (some centres unmarked) [Compound 390]
< 10 |  | COC(C)c1cc2cnc(Nc3ccc(CN4CCNCC4)cn3)nc2c(NCC(C)C)n1 (centres unmarked) [Compound 392]
< 10 |  | COC(C)c1cc2cnc(Nc3ccc(CN4CCNCC4)cn3)nc2c(NC2CCCC(O)C2)n1 (centres unmarked) [Compound 397]
< 10 |  | COC(C)c1cc2cnc(Nc3ccc(CN4CCNCC4)cn3)nc2c(NCC2CCCCO2)n1 (centres unmarked) [Compound 398]
< 10 |  | COC(C)c1cc2cnc(Nc3ccc(CN4CCNCC4)cn3)nc2c(NCC2CCCC(O)C2)n1 (centres unmarked) [Compound 402]
< 10 |  | COC(C)c1cc2cnc(Nc3ccc(CN4CCNCC4)cn3)nc2c(NC(C)C2CCOC2)n1 (centres unmarked) [Compound 404]
< 10 |  | COC(C)c1cc2cnc(Nc3ccc(CN4CCNCC4)cn3)nc2c(NC(C)C2CCCO2)n1 (centres unmarked) [Compound 409]
< 10 |  | COC(C)c1cc2cnc(Nc3ccc(CN4CCNCC4)cn3)nc2c(NC2CCOC(C)(C)C2)n1 (centres unmarked) [Compound 410]
< 10 |  | COC(C)c1cc2cnc(Nc3ccc(CN4CCNCC4)cn3)nc2c(NC[C@H]2CCCO2)n1 (some centres unmarked) [Compound 411]
< 10 |  | COC(C)c1cc2cnc(Nc3ccc(CN4CCNCC4)cn3)nc2c(Nc2cccc(C#N)c2)n1 (centres unmarked) [Compound 412]
< 10 |  | COC(C)c1cc2cnc(Nc3ccc(CN4CCNCC4)cn3)nc2c(NC2(CO)CCCC2)n1 (centres unmarked) [Compound 413]
< 10 |  | COC(C)c1cc2cnc(Nc3ccc(CN4CCNCC4)cn3)nc2c(NC2CN3CCC2CCOC3=O)n1 (centres unmarked) [Compound 415]
< 10 |  | COC(C)c1cc2cnc(Nc3ccc(CN4CCNCC4)cn3)nc2c(NC2CCCC2)n1 (centres unmarked) [Compound 417]
< 10 |  | COC(C)c1cc2cnc(Nc3ccc(CN4CCNCC4)cn3)nc2c(NCC(C)(C)C)n1 (centres unmarked) [Compound 418]
< 10 |  | COC(C)c1cc2cnc(Nc3ccc(CN4CCNCC4)cn3)nc2c(NC2(C)CCOCC2)n1 (centres unmarked) [Compound 420]
< 10 |  | CCC(C)Nc1nc(C(C)OC)cc2cnc(Nc3ccc(CN4CCNCC4)cn3)nc12 (centres unmarked) [Compound 423]
< 10 |  | O[C@H]1CC[C@@H](Nc2nc(C(F)F)cc3cnc(Nc4ccc(CN5CCNCC5)cn4)nc23)CC1 [Compound 424]
< 10 |  | O[C@H]1CC[C@@H](Nc2nc(C(F)F)cc3cnc(Nc4ccc(N5CCNCC5)nn4)nc23)CC1 [Compound 425]
< 10 |  | CN(C)CCOc1ccc(Nc2ncc3cc(C(F)F)nc(N[C@H]4CC[C@@H](O)CC4)c3n2)nc1 [Compound 426]
